{"source": "patent US20250360132A1", "about": "“METHODS OF ADMINISTERING MYOSIN INHIBITORS” (MYOKARDIA, INC., priority 2022, published 2025)", "key": {"pregnant rats [1]": {"tested_on": "pregnant rats", "test": "Embryo-fetal development study in rats", "type": "in vivo, rat", "text": "Plasma exposure (based on area under the concentration-time curve or AUC) at the no-effect dose for embryo-fetal development in rats is 0.3 times the exposure in humans at the MRHD."}, "pregnant rabbits": {"tested_on": "pregnant rabbits", "test": "Embryo-fetal development study in rabbits", "type": "in vivo, rabbit", "description": "Visceral findings consisted of malformations of the great vessels (dilatation of pulmonary trunk and/or aortic arch). Skeletal malformations consisted of higher incidences of fused sternebrae at ≥1.2 mg/kg/day. Plasma exposure (AUC) at the no-effect dose for embryo-fetal development in rabbits is 0.4 times the exposure in humans at the MRHD."}, "[2]": {"test": "Pre/postnatal development study", "type": "in vivo, rat", "conditions": "female, rat, in vivo; oral, gestation Day 6 to lactation/post-partum Day 20; highest dosage level tested; read-out: no-observed-adverse-effect level (NOAEL)", "description": "(§1) In a pre/postnatal development study, mavacamten was administered orally to pregnant rats (0.3, to 1.5 mg/kg/day) from gestation Day 6 to lactation/post-partum Day 20."}, "pregnant rats [3]": {"tested_on": "pregnant rats", "test": "Pre/postnatal development study", "type": "in vivo, rat", "conditions": "0.3 to 1.5 mg/kg/day", "description": "as §1"}, "[4]": {"test": "Pharmacokinetics in hepatic impairment", "type": "in vivo, human", "conditions": "mild (Child-Pugh A) or moderate (Child-Pugh B) hepatic impairment vs normal hepatic function", "text": "No dosage adjustment is required in patients with mild (Child-Pugh A) to moderate (Child-Pugh B) hepatic impairment. […] However, no additional dose adjustment is required in patients with mild to moderate hepatic impairment with the recommended dose titration algorithm and monitoring plan. The effect of severe (Child-Pugh C) hepatic impairment is unknown.\nThe effect of severe (Child-Pugh C) hepatic impairment is unknown."}, "Solubility": {"test": "Solubility", "type": "physicochemical"}, "HCM patients": {"tested_on": "HCM patients", "test": "Meta-analysis of QTc across clinical studies", "type": "in vivo, human", "conditions": "therapeutic exposure range", "text": "The effect of coadministration of MAVACAMTEN with QT-prolonging drugs or in patients with potassium channel variants resulting in a long QT interval have not been characterized."}, "CYP3A4 [5]": {"target": "T1, CYP3A4 (Homo sapiens, UniProt P08684)", "T1 sequence (P08684 whole entry)": "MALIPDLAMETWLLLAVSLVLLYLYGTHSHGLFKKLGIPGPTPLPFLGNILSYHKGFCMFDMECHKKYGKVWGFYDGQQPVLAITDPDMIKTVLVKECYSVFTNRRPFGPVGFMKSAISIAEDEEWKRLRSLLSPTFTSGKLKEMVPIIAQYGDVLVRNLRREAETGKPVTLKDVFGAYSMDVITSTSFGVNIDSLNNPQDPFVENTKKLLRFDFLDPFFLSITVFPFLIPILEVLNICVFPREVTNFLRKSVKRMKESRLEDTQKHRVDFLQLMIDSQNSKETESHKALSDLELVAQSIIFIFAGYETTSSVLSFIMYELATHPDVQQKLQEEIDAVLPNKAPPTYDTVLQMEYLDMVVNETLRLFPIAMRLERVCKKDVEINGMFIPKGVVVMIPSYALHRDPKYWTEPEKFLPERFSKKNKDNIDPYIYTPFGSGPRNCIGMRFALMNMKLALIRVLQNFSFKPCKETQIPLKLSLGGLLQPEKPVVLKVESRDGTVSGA", "test": "Metabolism, contribution of CYP3A4", "type": "in vitro ADME", "text": "Mavacamten is extensively metabolized, primarily through CYP2C19 (74%), CYP3A4 (18%), and CYP2C9 (8%).\nStatement of Purpose: Mavacamten is a first-in-class, selective, allosteric, and reversible cardiac myosin inhibitor in development for the treatment of adults with symptomatic obstructive hypertrophic cardiomyopathy. Mavacamten is hepatically metabolized predominantly via CYP2C19 (74%), CYP3A4 (18%) and CYP2C9 (8%). A previously developed fit-for-purpose physiologically based pharmacokinetic (PBPK) model was applied to explore the induction effects of a strong CYP3A4/CYP2C19 inducer-rifampin, as well as a strong CYP3A4 inducer-carbamazepine, on mavacamten exposures."}, "BCRP": {"target": "BCRP (Homo sapiens, UniProt Q9UNQ0)", "sequence (Q9UNQ0 whole entry)": "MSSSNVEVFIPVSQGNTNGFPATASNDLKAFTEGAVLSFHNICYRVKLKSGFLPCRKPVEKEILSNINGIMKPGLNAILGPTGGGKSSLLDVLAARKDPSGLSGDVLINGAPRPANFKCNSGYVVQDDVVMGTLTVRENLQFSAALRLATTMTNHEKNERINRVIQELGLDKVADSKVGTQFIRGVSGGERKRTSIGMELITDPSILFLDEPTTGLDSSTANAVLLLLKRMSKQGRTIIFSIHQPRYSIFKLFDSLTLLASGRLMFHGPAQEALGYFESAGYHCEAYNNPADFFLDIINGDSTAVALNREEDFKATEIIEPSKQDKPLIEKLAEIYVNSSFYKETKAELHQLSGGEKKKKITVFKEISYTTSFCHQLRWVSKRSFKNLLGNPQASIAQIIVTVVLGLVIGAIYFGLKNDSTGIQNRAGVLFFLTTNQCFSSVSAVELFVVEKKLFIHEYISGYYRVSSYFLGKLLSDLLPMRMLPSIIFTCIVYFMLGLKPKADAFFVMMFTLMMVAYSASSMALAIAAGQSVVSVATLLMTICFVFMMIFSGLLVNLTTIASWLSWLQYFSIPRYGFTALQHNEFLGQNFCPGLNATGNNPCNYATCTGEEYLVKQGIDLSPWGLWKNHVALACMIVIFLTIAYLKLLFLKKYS", "test": "In vitro transporter inhibition", "type": "in vitro ADME"}, "BSEP": {"target": "BSEP (Homo sapiens, UniProt O95342)", "sequence (O95342 whole entry)": "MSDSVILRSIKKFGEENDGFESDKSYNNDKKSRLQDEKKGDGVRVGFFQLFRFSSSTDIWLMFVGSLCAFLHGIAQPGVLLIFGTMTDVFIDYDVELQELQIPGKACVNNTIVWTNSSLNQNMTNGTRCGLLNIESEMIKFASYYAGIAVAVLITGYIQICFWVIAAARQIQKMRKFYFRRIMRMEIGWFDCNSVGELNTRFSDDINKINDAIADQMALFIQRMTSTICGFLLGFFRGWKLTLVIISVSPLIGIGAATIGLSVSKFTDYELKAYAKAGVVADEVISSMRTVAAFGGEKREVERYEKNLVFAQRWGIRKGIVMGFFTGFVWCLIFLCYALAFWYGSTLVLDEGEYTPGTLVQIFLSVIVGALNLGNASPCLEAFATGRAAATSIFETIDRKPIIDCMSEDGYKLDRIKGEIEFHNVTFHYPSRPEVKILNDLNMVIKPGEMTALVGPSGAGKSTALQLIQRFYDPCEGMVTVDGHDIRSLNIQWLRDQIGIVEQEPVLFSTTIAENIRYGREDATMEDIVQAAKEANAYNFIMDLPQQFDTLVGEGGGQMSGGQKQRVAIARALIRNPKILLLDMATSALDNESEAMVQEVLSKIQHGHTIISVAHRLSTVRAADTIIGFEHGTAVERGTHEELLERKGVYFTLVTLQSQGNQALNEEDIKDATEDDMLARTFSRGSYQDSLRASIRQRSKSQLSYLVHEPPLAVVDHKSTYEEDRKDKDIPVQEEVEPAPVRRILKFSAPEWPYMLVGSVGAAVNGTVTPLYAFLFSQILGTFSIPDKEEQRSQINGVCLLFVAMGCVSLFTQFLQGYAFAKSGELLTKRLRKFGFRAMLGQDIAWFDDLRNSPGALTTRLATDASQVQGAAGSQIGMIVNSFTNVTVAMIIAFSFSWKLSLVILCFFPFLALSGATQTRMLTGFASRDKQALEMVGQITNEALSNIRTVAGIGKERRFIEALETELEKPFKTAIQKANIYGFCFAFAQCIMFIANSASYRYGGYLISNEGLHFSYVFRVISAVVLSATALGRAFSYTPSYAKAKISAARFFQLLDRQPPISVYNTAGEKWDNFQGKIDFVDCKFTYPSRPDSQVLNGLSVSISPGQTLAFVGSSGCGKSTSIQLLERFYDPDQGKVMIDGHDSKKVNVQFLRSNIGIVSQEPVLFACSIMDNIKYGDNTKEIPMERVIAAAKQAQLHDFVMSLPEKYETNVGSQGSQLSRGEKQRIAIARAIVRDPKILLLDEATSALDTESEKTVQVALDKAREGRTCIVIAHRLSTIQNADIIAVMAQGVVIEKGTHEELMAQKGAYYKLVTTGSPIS", "test": "In vitro transporter inhibition", "type": "in vitro ADME"}, "MATE1": {"target": "MATE1 (Homo sapiens, UniProt Q96FL8)", "sequence (Q96FL8 whole entry)": "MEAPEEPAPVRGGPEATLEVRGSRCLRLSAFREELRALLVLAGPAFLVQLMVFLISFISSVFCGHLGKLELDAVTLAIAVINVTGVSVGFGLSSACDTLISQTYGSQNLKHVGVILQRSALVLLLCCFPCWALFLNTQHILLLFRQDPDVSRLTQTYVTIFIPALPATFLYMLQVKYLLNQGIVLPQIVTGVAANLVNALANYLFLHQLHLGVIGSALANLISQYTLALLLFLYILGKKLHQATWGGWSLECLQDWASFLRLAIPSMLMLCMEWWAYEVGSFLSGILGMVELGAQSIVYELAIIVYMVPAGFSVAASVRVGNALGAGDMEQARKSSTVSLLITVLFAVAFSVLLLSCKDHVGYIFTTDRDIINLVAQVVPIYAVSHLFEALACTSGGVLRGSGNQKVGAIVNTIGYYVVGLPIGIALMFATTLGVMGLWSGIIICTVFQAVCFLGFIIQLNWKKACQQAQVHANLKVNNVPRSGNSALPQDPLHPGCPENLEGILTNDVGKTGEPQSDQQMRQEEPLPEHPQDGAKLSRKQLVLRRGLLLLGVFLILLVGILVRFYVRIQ", "test": "In vitro transporter inhibition", "type": "in vitro ADME"}, "MATE2-K": {"target": "MATE2-K (Homo sapiens, UniProt Q86VL8)", "sequence (Q86VL8 1-566 isoform Q86VL8-3)": "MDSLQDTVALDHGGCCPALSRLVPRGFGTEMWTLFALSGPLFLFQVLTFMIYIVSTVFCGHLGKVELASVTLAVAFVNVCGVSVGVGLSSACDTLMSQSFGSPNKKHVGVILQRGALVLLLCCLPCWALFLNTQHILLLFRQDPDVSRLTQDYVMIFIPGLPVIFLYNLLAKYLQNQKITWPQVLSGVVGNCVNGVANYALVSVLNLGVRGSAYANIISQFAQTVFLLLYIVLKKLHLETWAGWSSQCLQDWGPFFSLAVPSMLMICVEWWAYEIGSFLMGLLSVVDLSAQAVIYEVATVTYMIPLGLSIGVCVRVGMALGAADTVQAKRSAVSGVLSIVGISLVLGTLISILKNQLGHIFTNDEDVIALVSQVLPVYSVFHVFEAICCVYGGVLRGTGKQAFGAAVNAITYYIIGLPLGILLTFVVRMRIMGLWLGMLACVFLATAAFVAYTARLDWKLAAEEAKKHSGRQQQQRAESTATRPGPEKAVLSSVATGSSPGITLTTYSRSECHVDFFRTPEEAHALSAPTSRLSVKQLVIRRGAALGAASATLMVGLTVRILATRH", "test": "In vitro transporter inhibition", "type": "in vitro ADME"}, "[6]": {"tested_on": "organic anion transporting polypeptides (OATPs)", "test": "In vitro transporter inhibition", "type": "in vitro ADME"}, "[7]": {"tested_on": "organic cation transporters (OCTs)", "test": "In vitro transporter inhibition", "type": "in vitro ADME"}, "CYP2C19 [8]": {"tested_on": "CYP2C19", "test": "Pharmacogenomics: CYP2C19 PMs vs NMs, single dose", "type": "in vivo, human", "conditions": "single dose of 15 mg mavacamten", "text": "Mean half-life is prolonged in CYP2C19 PMs compared to NMs (23 days vs. 6 to 9 days, respectively).\nPolymorphic CYP2C19 is the main enzyme involved in the metabolism of MAVACAMTEN. An individual carrying two normal function alleles is a NM (e.g., *1/*1). An individual carrying two no function alleles is a PM (e.g., *2/*2, *2/*3, *3/*3)."}, "bacterial": {"tested_on": "bacterial", "type": "cell-based", "text": "(§2) Mavacamten was not genotoxic in a bacterial reverse mutation test (Ames test), a human in vitro lymphocyte […] assay, or a rat in vivo micronucleus assay."}, "human lymphocyte": {"tested_on": "human lymphocyte", "test": "Human in vitro lymphocyte electrogenicity assay", "type": "cell-based", "text": "as §2"}, "rat": {"tested_on": "rat", "test": "Rat in vivo micronucleus assay", "text": "as §2"}, "male or female rats": {"tested_on": "male or female rats", "test": "Reproductive toxicity studies (mating and fertility)", "type": "in vivo, rat"}, "rats": {"tested_on": "rats", "test": "Animal toxicology, rats", "type": "in vivo", "description": "(§3) The safety of mavacamten has been evaluated in rats and dogs at multiple dose levels (0.06 to 10 mg/kg/day) orally. […] Plasma exposures (AUC) at the NOAEL in rats and dogs were 0.1 and 0.3 times, respectively, human exposure (AUC) at the MRHD."}, "dogs": {"tested_on": "dogs", "test": "Animal toxicology, dogs", "type": "in vivo", "description": "as §3"}, "CYP2C19 [9]": {"target": "CYP2C19 (Homo sapiens, UniProt P33261)", "sequence (P33261 whole entry)": "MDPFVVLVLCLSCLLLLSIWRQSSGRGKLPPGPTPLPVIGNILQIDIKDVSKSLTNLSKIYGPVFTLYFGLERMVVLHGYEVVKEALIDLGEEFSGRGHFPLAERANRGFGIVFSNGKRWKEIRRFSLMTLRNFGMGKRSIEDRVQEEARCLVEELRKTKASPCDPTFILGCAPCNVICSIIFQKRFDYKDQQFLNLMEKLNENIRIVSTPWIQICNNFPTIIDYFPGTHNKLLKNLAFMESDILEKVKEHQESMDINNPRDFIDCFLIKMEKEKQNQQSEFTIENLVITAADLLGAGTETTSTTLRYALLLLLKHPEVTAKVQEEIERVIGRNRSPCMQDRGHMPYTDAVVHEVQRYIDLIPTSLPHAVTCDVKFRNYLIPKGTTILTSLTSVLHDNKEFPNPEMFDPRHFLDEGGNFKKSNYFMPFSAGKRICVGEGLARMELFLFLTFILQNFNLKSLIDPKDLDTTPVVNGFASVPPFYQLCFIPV", "test": "Clinical DDI with weak CYP2C19 inhibitor omeprazole", "type": "in vivo", "parameters": "host or cells: in silico (Simcyp v19)", "conditions": "mavacamten 15 mg with omeprazole 20 mg once daily; healthy CYP2C19 NMs and RMs"}, "CYP3A4 [10]": {"target": "T1, CYP3A4", "test": "Clinical DDI with moderate CYP3A4 inhibitor verapamil", "type": "in vivo", "parameters": "host or cells: in silico (Simcyp v19 where stated)", "conditions": "mavacamten 25 mg with verapamil sustained release 240 mg; CYP2C19 IMs and NMs"}}, "data": [{"smiles": "CC(C)n1c(=O)cc(N[C@@H](C)c2ccccc2)[nH]c1=O", "note": "[mavacamten, (S)-3-Isopropyl-6-((1-phenylethyl)amino)pyrimidine-2,4(1H,3H)-dione]", "values": [{"measurement": "Embryo-fetal findings in the high dose group", "setting": "pregnant rats [1]; oral, 1.5 mg/kg/day, period of organogenesis", "value": "increases in post-implantation loss, decreases in mean fetal body weight, reductions in fetal ossification of bones, and fetal malformations (visceral and skeletal)"}, {"measurement": "Plasma exposure (AUC) at the no-effect dose for embryo-fetal development vs humans at the MRHD", "setting": "pregnant rats [1]; rats", "value": 0.3, "unit": "times"}, {"measurement": "Embryo-fetal findings (risk summary)", "setting": "pregnant rats [1]; rats, dose exposures similar to that at the MRHD", "value": "decreases in mean fetal body weight, reductions in fetal ossification of bones, and increases in post-implantation loss"}, {"measurement": "Embryo-fetal findings (risk summary)", "setting": "pregnant rabbits; both rabbits and rats, dose exposures similar to that at the MRHD", "value": "increases in visceral and skeletal malformations"}, {"measurement": "Doses at which fetal malformations (visceral and skeletal) were increased", "setting": "pregnant rabbits; oral, period of organogenesis", "value": "≥ 1.2", "unit": "mg/kg/day"}, {"measurement": "Plasma exposure (AUC) at the no-effect dose for embryo-fetal development vs humans at the MRHD", "setting": "pregnant rabbits; rabbits", "value": 0.4, "unit": "times"}, {"measurement": "NOAEL", "setting": "[2]", "value": 1.5, "unit": "mg/kg/day"}, {"measurement": "Effects in dams or offspring", "setting": "pregnant rats [3]", "value": "No adverse effects were observed in the dams or offspring"}, {"measurement": "Increase in mavacamten exposure (AUC)", "setting": "[4]", "value": "up to 220%"}, {"measurement": "Solubility in DMSO and NMP", "setting": "Solubility", "value": "freely soluble"}, {"measurement": "Solubility in methanol and ethanol", "setting": "Solubility", "value": "sparingly soluble"}, {"measurement": "Solubility in water and aqueous buffers", "setting": "Solubility; pH 2-10", "value": "practically insoluble"}, {"measurement": "QTc interval in HCM patients", "setting": "HCM patients", "value": "does not suggest clinically relevant increases in the QTc interval"}, {"measurement": "Metabolism through CYP3A4", "setting": "CYP3A4 [5]", "value": 18, "unit": "%"}, {"measurement": "Inhibition of BCRP", "setting": "BCRP", "value": "does not inhibit"}, {"measurement": "Inhibition of BSEP", "setting": "BSEP", "value": "does not inhibit"}, {"measurement": "Inhibition of MATE1", "setting": "MATE1", "value": "does not inhibit"}, {"measurement": "Inhibition of MATE2-K", "setting": "MATE2-K", "value": "does not inhibit"}, {"measurement": "Inhibition of OATPs", "setting": "[6]", "value": "does not inhibit"}, {"measurement": "Inhibition of OCTs", "setting": "[7]", "value": "does not inhibit"}, {"measurement": "Increase in AUCinf in CYP2C19 PMs compared to NMs", "setting": "CYP2C19 [8]", "value": 241, "unit": "%"}, {"measurement": "Increase in Cmax in CYP2C19 PMs compared to NMs", "setting": "CYP2C19 [8]", "value": 47, "unit": "%"}, {"measurement": "Genotoxicity, Ames test", "setting": "bacterial", "value": "not genotoxic"}, {"measurement": "Genotoxicity, human in vitro lymphocyte electrogenicity assay", "setting": "human lymphocyte", "value": "not genotoxic"}, {"measurement": "Genotoxicity, rat in vivo micronucleus assay", "setting": "rat", "value": "not genotoxic"}, {"measurement": "Effects on viability and fertility of offspring", "setting": "male or female rats; dams dosed up to 1.5 mg/kg/day", "value": "no evidence of effects"}, {"measurement": "Plasma exposure (AUC) at the highest dose tested", "setting": "male or female rats; vs humans at the MRHD", "value": "the same as in humans at the MRHD"}, {"measurement": "Plasma exposure (AUC) at the NOAEL vs human exposure at the MRHD", "setting": "rats", "value": 0.1, "unit": "times"}, {"measurement": "Plasma exposure (AUC) at the NOAEL vs human exposure at the MRHD", "setting": "dogs", "value": 0.3, "unit": "times"}, {"measurement": "Increase in mavacamten AUCinf", "setting": "CYP2C19 [9]", "value": 48, "unit": "%"}, {"measurement": "Increase in mavacamten AUCinf", "setting": "CYP3A4 [10]", "value": 15, "unit": "%"}, {"measurement": "Increase in mavacamten Cmax", "setting": "CYP3A4 [10]", "value": 52, "unit": "%"}]}]}
